Measurements published in paper PMC3596558, “Identification of the metabolites of polybrominated diphenyl ether 99 and its related cytochrome P450s^” (Journal of Biomedical Research, 2010).
Values joined by “and” are separate entries in the source; they are usually repeats but may differ in a detail not shown here. Equal entries are not always repeated. “Also recorded” adds a separate entry of the source.

Experiments:
primary rat hepatocytes = assay: Metabolism of BDE-99 in primary rat hepatocytes, GC/MS of extracts; format: in vitro ADME; details: for metabolite of BDE-99 detected by GC/MS (qualitative): compared with commercial standards
From the text: Primary rat hepatocytes were isolated from three individual male Sprague-Dawley CD rats (body weight 220-250 g) obtained from Laboratory Animal Center of Nanjing Medical University, using the two-step in situ collagenase perfusion method. Then the hepatocytes were purified by percoll density gradient separation and washed twice before being resuspended in the attachment medium. Cells viability exceeded 90% as determined by trypan blue exclusion. For the cell culture, the isolated hepatocytes were seeded in Type I collagen-coated 12-well plates at a density of 150, 000 cells/cm^2 in Williams' Medium E containing 5% fetal calf serum, 100 U/mL penicillin and 100 µg/mL streptomycin, and then incubated in a humidified atmosphere of 5% CO2 in air at 37°C. After 2-3 h incubation, the unattached cells were poured off and the medium was replaced with 1 mL HepatoZYME-SFM supplemented with 100 U/mL penicillin, 100 µg/mL streptomycin, 20 µg/L EGF and 20 µg/L HGF.
(§1) All the hepatocyte batches were exposed to BDE-99 at a nominal concentration of 10 µM, equivalent to 10 nM of compound per well. A stock solution of BDE-99 which was 200 times the final concentration in tissue culture medium was prepared in DMSO and stored at -20°C. Separate 12-well plates were used for the metabolism and gene expression analysis. To produce metabolites of BDE-99, the hepatocytes were treated once every 24 h for 3 days to take advantage of the increased activity of cells and potential increase in metabolite formation. The hepatocytes cultured with medium without BDE-99 were set up as controls. During medium exchange of the hepatocytes, we collected and pooled the contents from each well. After incubation, the hepatocytes were removed from the wells using 1 mL methanol to disrupt cell membranes. The contents were subsequently transferred to clean glass test tubes for extraction. For the gene expression analysis, the rat hepatocytes were exposed to 10 µM BDE-99 for 24 h. Wells treated with media containing aliquots of DMSO were set up as controls.
Hepatocytes and media were extracted using methods developed for the extraction of phenolic and neutral compounds from serum. Briefly, samples were first spiked with one internal standard, BDE-77, and extracted using methyl-tert-butyl ether/hexane:1/1(v/v). Lipids were removed from the extracts with concentrated sulfuric acid, and then the neutral and phenolic compounds were separated using a basic aqueous solution of potassium hydroxide. The phenolic fraction was derivatized with acetonitrile / methanol / water / pyrimidine: 5/2/2/1(v/v), then methyl chloroformate was added to produce methyl formate BDE congeners. After derivatization, samples were evaporated to complete dryness using a slow stream of nitrogen and reconstituted in hexane. Each human P450s assay sample was added into one internal standard BDE-77 before extraction. Proteins were denatured with 0.5 mL 6 M hydrochloric acid, and then 3 mL hexane was added for extraction. This step was repeated three times. The extraction was evaporated to complete dryness using a slow stream of nitrogen and reconstituted in 0.5 mL acetonitrile. Rates of elimination were determined by comparing the concentration of parent compound before and after the reaction.
The underivatized and derivatized extracts were analyzed using a GC/MS system (Trace DSQ ThermoFisher Scientific, USA) with electron impact (EI) ionization. Separation was performed on a DB-5MS column (30 m×0.25 mm i. d. ×0.25 µm thickness) (Agilent Technologies, Inc., USA). The inlet temperature was 260°C, and the injection was performed in pulsed splitless mode. The oven initial temperature was 110°C and was held for 1 min. The temperature was ramped to 210°C at 12°C/min, and a second ramp was performed to 250°C at 4°C/min and was […]. Finally, the oven was ramped to 300°C at 20°C/min and this step was held for 10 min to give a total run time of 32.83 min. […]

human CYP1A2 = biological target: T1, human CYP1A2 (Homo sapiens, UniProt P05177); assay: Metabolic clearance (parent depletion) of BDE-99 by recombinant human CYP1A2; format: in vitro ADME; details: percentage parent BDE-99 metabolized during a 20-min incubation, 20 µM BDE-99, 37°C, mean ±SD, n = 3
T1 construct: made in house; host or cells: Sf9 insect cells (Bac-to-Bac baculovirus), microsomes
T1 sequence (P05177 1-516): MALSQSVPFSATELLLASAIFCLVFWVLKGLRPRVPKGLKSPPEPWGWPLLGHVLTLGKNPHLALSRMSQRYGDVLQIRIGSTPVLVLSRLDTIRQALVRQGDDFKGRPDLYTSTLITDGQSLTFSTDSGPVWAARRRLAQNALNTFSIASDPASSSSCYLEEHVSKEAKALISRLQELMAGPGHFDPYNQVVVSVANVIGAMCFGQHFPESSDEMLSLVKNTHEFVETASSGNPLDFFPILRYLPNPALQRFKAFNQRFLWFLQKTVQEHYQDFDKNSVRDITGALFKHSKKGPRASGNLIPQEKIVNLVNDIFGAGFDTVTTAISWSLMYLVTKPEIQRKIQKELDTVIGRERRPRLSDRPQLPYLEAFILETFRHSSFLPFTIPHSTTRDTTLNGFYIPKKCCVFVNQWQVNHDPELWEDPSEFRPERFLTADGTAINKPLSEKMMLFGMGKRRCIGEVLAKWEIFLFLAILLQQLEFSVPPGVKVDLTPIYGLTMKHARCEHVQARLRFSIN
From the text: (§2) All the proteins were expressed in a Bac-to-Bac baculovirus expression system (Invitrogen Corp., USA) following the manufacturer's instructions. Briefly, the CYP1A1 (NM_000499), CYP1A2 (NM_000761), CYP2A6 (NM_000762), CYP2E1 (NM_000773) and CYP3A4 (NM_017460) cDNA were first transformed to the recombinant bacmid, and subsequently transfected into the Sf9 cells to produce recombinant baculovirus particles, and further to get the baculoviral stock which was finally used to express CYPs proteins in the culture medium containing 0.1 µM ferric citrate and 0.1 µM 5-ALA. After being incubated for 72 h, the infected Sf9 cells were harvested and the microsomes were prepared by sonication using an Ultrasonic Processor (CPX130, Cole-Parmer Scientific Instruments, USA) and differential centrifugation. The protein expressed from the blank vector was used as a negative control. The prepared microsomes were stored at -80°C prior to usage.
(§3) Each human P450 was screened for its ability to oxidize and eliminate BDE-99 from the assay mixture. […]
(§4) Hepatocytes and media were extracted using methods developed for the extraction of phenolic and neutral compounds from serum. […] Rates of elimination were determined by comparing the concentration of parent compound before and after the reaction.

CYP3A23/3A1 mRNA = CYP3A23/3A1 mRNA expression in primary rat hepatocytes, quantitative RT-PCR; format: cell-based; details: 10 µM BDE-99, 24 h; P < 0.05; n = 3
Method: as §1, with “Wells treated with media containing aliquots of DMSO were set up as controls.” left out
(§5) The expression of several genes that encode potential biotransforming enzymes, such as CYP1A2, CYP2B1/2, CYP3A23/3A1, GSTM1 and GSTP1, were determined using quantitative RT-PCR, and GAPDH was used as a reference to calculate the expression levels. […] At the end of each step, the fluorescence intensity of evagreen was read on the 7900 system. […]

human CYP2A6 = biological target: T2, human CYP2A6 (Homo sapiens, UniProt P11509); assay: Metabolic clearance (parent depletion) of BDE-99 by recombinant human CYP2A6; format: in vitro ADME; details: percentage parent BDE-99 metabolized during a 20-min incubation, 20 µM BDE-99, 37°C, mean ±SD, n = 3
T2 construct: made in house; host or cells: Sf9 insect cells (Bac-to-Bac baculovirus), microsomes
T2 sequence (P11509 1-494): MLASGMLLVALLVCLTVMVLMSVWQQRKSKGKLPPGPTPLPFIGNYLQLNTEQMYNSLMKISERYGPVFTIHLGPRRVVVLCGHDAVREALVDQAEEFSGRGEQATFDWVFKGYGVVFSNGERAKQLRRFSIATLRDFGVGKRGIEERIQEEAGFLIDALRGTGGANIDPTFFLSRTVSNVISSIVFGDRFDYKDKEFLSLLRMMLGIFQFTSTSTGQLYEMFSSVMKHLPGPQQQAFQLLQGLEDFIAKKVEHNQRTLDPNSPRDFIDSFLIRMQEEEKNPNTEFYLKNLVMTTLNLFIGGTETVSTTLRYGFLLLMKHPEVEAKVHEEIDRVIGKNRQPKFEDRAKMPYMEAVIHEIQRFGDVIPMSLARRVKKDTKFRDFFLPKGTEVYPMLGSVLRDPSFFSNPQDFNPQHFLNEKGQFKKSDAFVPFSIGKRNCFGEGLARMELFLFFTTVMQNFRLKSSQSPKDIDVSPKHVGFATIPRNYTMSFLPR
From the text: as §2, §3, §4

CYP1A2 mRNA = CYP1A2 mRNA expression in primary rat hepatocytes, quantitative RT-PCR; format: cell-based; details: 10 µM BDE-99, 24 h; P < 0.05; n = 3
Method: as §1, with “Wells treated with media containing aliquots of DMSO were set up as controls.” left out
as §5

human CYP1A1 = biological target: T3, human CYP1A1 (Homo sapiens, UniProt P04798); assay: Metabolic clearance (parent depletion) of BDE-99 by recombinant human CYP1A1; format: in vitro ADME; details: percentage parent BDE-99 metabolized during a 20-min incubation, 20 µM BDE-99, 37°C, mean ±SD, n = 3
T3 construct: made in house; host or cells: Sf9 insect cells (Bac-to-Bac baculovirus), microsomes
T3 sequence (P04798 1-512): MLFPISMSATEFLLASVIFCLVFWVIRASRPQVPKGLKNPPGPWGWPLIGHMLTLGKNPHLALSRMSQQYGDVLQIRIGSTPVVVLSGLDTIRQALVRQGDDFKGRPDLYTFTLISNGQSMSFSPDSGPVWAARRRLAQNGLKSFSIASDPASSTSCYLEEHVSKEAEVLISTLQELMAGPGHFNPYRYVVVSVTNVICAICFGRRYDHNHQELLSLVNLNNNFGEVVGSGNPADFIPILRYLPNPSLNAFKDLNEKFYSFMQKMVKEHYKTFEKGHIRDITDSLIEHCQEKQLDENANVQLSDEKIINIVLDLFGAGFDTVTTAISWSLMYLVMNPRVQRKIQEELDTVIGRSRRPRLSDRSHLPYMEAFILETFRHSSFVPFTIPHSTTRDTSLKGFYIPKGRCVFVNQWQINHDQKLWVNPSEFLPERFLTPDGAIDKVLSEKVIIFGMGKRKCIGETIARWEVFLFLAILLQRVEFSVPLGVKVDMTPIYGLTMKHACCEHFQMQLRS
From the text: as §2, §3, §4

human CYP3A4 = biological target: T4, human CYP3A4 (Homo sapiens, UniProt P08684); assay: Metabolic clearance (parent depletion) of BDE-99 by recombinant human CYP3A4; format: in vitro ADME; details: percentage parent BDE-99 metabolized during a 20-min incubation, 20 µM BDE-99, 37°C, mean ±SD, n = 3
T4 construct: made in house; host or cells: Sf9 insect cells (Bac-to-Bac baculovirus), microsomes
T4 sequence (P08684 whole entry): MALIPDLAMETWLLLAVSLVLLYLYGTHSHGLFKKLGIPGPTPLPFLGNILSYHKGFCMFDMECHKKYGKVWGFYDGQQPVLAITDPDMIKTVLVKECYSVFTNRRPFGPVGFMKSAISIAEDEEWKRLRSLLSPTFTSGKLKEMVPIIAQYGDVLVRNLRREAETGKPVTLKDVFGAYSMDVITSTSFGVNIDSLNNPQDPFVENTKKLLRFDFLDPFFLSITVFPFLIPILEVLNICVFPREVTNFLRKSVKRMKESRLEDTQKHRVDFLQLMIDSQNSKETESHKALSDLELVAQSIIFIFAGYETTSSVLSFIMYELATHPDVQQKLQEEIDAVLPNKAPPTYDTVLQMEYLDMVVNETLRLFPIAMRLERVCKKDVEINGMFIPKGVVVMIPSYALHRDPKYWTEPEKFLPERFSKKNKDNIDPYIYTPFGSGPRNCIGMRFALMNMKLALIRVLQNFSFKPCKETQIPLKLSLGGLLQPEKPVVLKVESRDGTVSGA
From the text: as §2, §3, §4

CYP2B1/2 mRNA = CYP2B1/2 mRNA expression in primary rat hepatocytes, quantitative RT-PCR; format: cell-based; details: 10 µM BDE-99, 24 h; P < 0.05; n = 3
Method: as §1, with “Wells treated with media containing aliquots of DMSO were set up as controls.” left out
as §5

human CYP2E1 = biological target: T5, human CYP2E1 (Homo sapiens, UniProt P05181); assay: Metabolic clearance (parent depletion) of BDE-99 by recombinant human CYP2E1; format: in vitro ADME; details: 20-min incubation, 20 µM BDE-99, 37°C, N.S. = no significant difference (vs blank vector control)
T5 construct: made in house; host or cells: Sf9 insect cells (Bac-to-Bac baculovirus), microsomes
T5 sequence (P05181 whole entry): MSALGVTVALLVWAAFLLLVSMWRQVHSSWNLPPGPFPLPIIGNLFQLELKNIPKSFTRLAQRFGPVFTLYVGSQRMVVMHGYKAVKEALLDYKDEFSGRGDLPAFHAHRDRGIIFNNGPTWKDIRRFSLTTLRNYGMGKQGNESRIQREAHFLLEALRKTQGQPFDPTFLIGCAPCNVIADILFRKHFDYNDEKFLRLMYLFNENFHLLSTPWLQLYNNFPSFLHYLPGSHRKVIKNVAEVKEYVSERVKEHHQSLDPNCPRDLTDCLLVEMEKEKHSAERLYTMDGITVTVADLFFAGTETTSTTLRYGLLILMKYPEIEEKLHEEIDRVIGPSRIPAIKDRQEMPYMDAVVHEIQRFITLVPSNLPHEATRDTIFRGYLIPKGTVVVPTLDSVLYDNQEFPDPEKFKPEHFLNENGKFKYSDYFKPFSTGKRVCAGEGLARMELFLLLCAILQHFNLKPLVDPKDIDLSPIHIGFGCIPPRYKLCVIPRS
From the text: as §2, §3, §4

GSTM1 mRNA = GSTM1 mRNA expression in primary rat hepatocytes, quantitative RT-PCR; format: cell-based; details: 10 µM BDE-99, 24 h; n = 3
Method: as §1, with “Wells treated with media containing aliquots of DMSO were set up as controls.” left out
as §5

GSTP1 mRNA = GSTP1 mRNA expression in primary rat hepatocytes, quantitative RT-PCR; format: cell-based; details: 10 µM BDE-99, 24 h; n = 3
Method: as §1, with “Wells treated with media containing aliquots of DMSO were set up as controls.” left out
as §5

[1] = hepatocytes exposed to 10 µM BDE-99

## Oc1cc(Br)c(Br)cc1Br [2,4,5-tribromophenol]
Primary rat hepatocytes; [1]
  metabolite of BDE-99 detected by GC/MS (qualitative): identified

## Oc1cc(Oc2ccc(Br)cc2Br)c(Br)cc1Br [5-OH-BDE-47]
Primary rat hepatocytes; [1]
  metabolite of BDE-99 detected by GC/MS (qualitative): identified

## Oc1cc(Oc2cc(Br)c(Br)cc2Br)c(Br)cc1Br [5′-OH-BDE-99]
Primary rat hepatocytes; [1]
  metabolite of BDE-99 detected by GC/MS (qualitative): identified

## Brc1ccc(Oc2ccc(Br)cc2Br)c(Br)c1 [BDE-47]
Primary rat hepatocytes; [1]
  metabolite of BDE-99 detected by GC/MS (qualitative): found in all hepatocytes exposed to BDE-99
Primary rat hepatocytes; hepatocytes exposed to 10 µM BDE-99, neutral extracts, GC/MS
  average concentration of metabolite BDE-47 formed from BDE-99: 215.9±35.8 pmol/well

## Brc1ccc(Oc2cc(Br)c(Br)cc2Br)c(Br)c1 [BDE-99, 2,2′,4,4′,5-pentabromodiphenyl ether]
Human CYP1A2
  Clearance rate of BDE-99 (%): 30.3% and 30.3±6.5%
CYP3A23/3A1 mRNA
  average percentage increase of CYP3A23/3A1 mRNA expression vs control: 124%
Human CYP2A6
  Clearance rate of BDE-99 (%): 11.6% and 11.6±2.3%
CYP1A2 mRNA
  average percentage increase of CYP1A2 mRNA expression vs control: 15%
Human CYP1A1
  Clearance rate of BDE-99 (%): 14.5%
Primary rat hepatocytes; after 24-h incubation, initial 10.21±0.50 nmol/well
  BDE-99 mass unrecovered: about 13.5%
Primary rat hepatocytes; [1]
  metabolite of BDE-99 detected by GC/MS (qualitative): no MeO metabolite was determined
Human CYP3A4
  Clearance rate of BDE-99 (%): 27.7% and 27.7±5.1%
CYP2B1/2 mRNA
  average percentage increase of CYP2B1/2 mRNA expression vs control: 22%
Human CYP2E1
  Clearance rate of BDE-99 (%): seemed not to be associated with the BDE-99 metabolism; also recorded: did not contribute to any metabolism of BDE-99; also recorded: N.S. ^b
GSTM1 mRNA
  GSTM1 mRNA expression, treated cells vs control cells: no differences
GSTP1 mRNA
  GSTP1 mRNA expression, treated cells vs control cells: no differences
